Reference: article PMC9917132, “Tenebrio molitor as a Simple and Cheap Preclinical Pharmacokinetic and Toxicity Model” (International Journal of Molecular Sciences, 2023)
Where two headings read alike, the source gives them in different places.

Columns and labels:
[1] = Acute toxicity (LD50) in adult T. molitor Coleoptera (TMC) after injection in the hemocoel; format: in vivo, Tenebrio molitor; settings: Tenebrio molitor, in vivo, other: injection in the hemocoel; 1 µL in 100% DMSO injected in hemocoel; mortality recorded daily for 7 days; highest dose 2000 mg/kg
Description: (§1) The literature was carefully studied to identify the starting dose of a panel of drugs; however, when no data were available, the protocol described in Figure 1 was adopted, using 1 TMC and starting from the dose of 200 mg/kg.
(§2) The protocol depicted in Figure 2 has been adopted to determine LD50, starting from the opportune dose determined as described above. A panel of 20 drugs available on the market, including antivirals, antibiotics and the representative drugs for several pharmaceutical classes, was analyzed (Table 2).
(§3) Figure 2 Flowchart for LD50 determination. Starting from the opportune initial dose, LD50 was determined by changing the dose based on results and increasing the number of […] for final determinations. GHS cat.: Globally Harmonized System category. The numbers on the circles represent the number of deaths in exemplars.
(§4) TMC were randomly selected for toxicity assessment. TMC older than 3 days were discarded.
(§5) Acute toxicity was determined following the Organization for Economic Cooperation and Development (OECD) guidelines for acute toxicity of chemicals. All the available information on the test substance was considered to select the toxic dose of test compounds. Data were collected considering LD50 already reported for humans, rats and mice or, when possible, insects (e.g., Galleria mellonella). The initial dose, expressed in mg/kg, was calculated as the lowest LD50 reported in the literature. When no data were found in the literature, the starting dose of 200 mg/kg was used and the range-finding study was conducted with 1 TMC, by adapting OECD guidelines (Figure 1). To perform LD50 calculation study, 5 TMC were injected with the selected dose, and mortality was recorded daily for 7 days. Each experiment included 1 control group treated with DMSO. […] If 1 or less TMC died, the experiment was performed with a higher dose. If 2 or 3 TMC died, the experiment was repeated by re-testing the initial dose with 10 TMC. […] The experiment continued until a toxic dose was determined.

Rats = settings: cited from earlier work; for LD50: reported
Mice = settings: cited from earlier work
[2] = cited from earlier work; for T ½ / Vd: PK literature data
[3] = NADPH-generating system, 37 °C, pH 7.4
Description: To characterize their phase I metabolism, the drugs were incubated with human or rat microsomes and their main metabolites were determined by HPLC-MS analysis and compared to data already reported (Table 3).
After centrifuging the reaction mixtures, the parent drug and its metabolites were characterized by LC-UV-MS [38].
HPLC analysis was performed using an Agilent 1100 LC/MSD VL system (G1946C) (Agilent Technologies, Palo Alto, CA) comprising a vacuum solvent degassing unit, a binary high-pressure gradient pump and a 1100 series UV detector; a 1100 MSD model VL benchtop mass spectrometer was used to perform the chromatographic analysis. Chromatographic separation was obtained using a Phenomenex Kinetex C18-100 Å column (100–4.6 mm, 5 μm particle size). […] The injection volume was 20 μL and the flow rate was 0.4 mL min^−1. The orthogonal spray API-ES was installed on the Agilent 1100 series mass spectra-detection single-quadrupole instrument (Agilent Technologies, Palo Alto, CA, USA). N2 was used as a nebulizing and drying gas. The vaporization temperature, capillary voltage, fragmentor voltage, drying gas flow and pressure were set at […], respectively. […] The LC-ESI-MS measurements were performed by operating in either the positive or negative ion mode. Spectra were acquired over the scan range m/z 100–1500 using a step size of 0.1 u. […]

[4] = Preliminary in vivo PK in TMC (hemolymph analysis by HPLC); settings: single dose equal to half the LD50 (62.5 or 150 mg/kg); hemolymph at 0, 1, 2, 4, 8, 24 hpt
[5] = set-up: method as in doi:10.1201/9780429460418; settings: literature data; cited from earlier work
[6] = set-up: method as in doi:10.1201/9780429460418; settings: literature data; cited from earlier work; remark: listed apart in the source
guinea pigs = settings: i.v., reported; cited from earlier work
[7] = tested on: adult exemplars of T. molitor Coleoptera; test: Toxicity of vehicles in adult T. molitor Coleoptera (survival, vitals monitored daily for seven days); format: in vivo, Tenebrio molitor; settings: for Survival %: groups of six TMC, seven days; for tolerability: 1 µL per TMC (lower dose)
Description: Considering the limited volume of hemolymph, we considered injecting 1 or 2 µL of vehicles per TMC. The most common vehicles used for i.v. and i.p. studies were administered to experimental groups of six TMC and vitals were monitored daily for seven days. Results are reported in Table 1, expressed as survival %.
TMC were randomly selected for toxicity assessment. TMC older than 3 days were discarded. Compounds were solubilized in the opportune vehicle and injected on the hemocoel using a Hamilton syringe, (7001 KH, volume 1 µL, needle size 25 s, cone tip), by administering 1 µL of compound on the TMC dorsal side, between the pronotum and elytron.

dogs = settings: i.v., reported; cited from earlier work
Tenebrio molitor = test: Acute toxicity (LD50) in adult T. molitor Coleoptera (TMC) after injection in the hemocoel; format: in vivo; settings: dose of 2000 mg/kg
Description: as §1, §2, §3, §4, §5

[8] = set-up: method as in PMID 33649113; settings: oral administration; cited from earlier work
[9] = in some people, depending on age and state of health

Row | Structure (SMILES) | LD50 at 7 days [1] [mg/kg] | LD50 Rats iv (Rats) [mg/kg] | LD50 Rats ip (Rats) [mg/kg] | LD50 Mice ip (Mice) [mg/kg] | LD50 Mice iv (Mice) [mg/kg] | further results
1 | Cc1onc(-c2ccccc2Cl)c1C(=O)N[C@@H]1C(=O)N2[C@@H]1SC(C)(C)[C@@H]2C(=O)O [Cloxacillin] | 750 | 1660 |  |  |  | 
2 | CC1(C)S[C@@H]2[C@H](NC(=O)[C@H](N)c3ccc(O)cc3)C(=O)N2[C@H]1C(=O)O [Amoxicillin] | 750 |  | 2870 |  |  | 
3 | CC(C(=O)O)c1cccc(C(=O)c2ccccc2)c1 (stereo not shown) [Ketoprofen] |  | 350 | 80 | 300 |  | 
4 | Cc1cccc(C)c1NC(=O)C1CCCCN1C (stereo not shown) [Mepivacaine] | 125 | 30 |  | 135 | 35 | 
5 | COc1cc(Cc2cnc(N)nc2N)cc(OC)c1OC [Trimethoprim] | 300 |  | 500 | 400 | 132 | 
6 | CN(C)CCCN1c2ccccc2Sc2ccc(Cl)cc21 [Chlorpromazine] | 300 |  | 137 | 14 | 106 | T ½ [2]: 8 to 35 h; Vd [2]: 7 to 20 L/kg; t ½ (prolonged) [2, 9]: 60 h; t ½ (reduced) [2, 9]: 2 h; Stability % Rats Microsomes ([3]; rat liver microsomes 0.2 mg/mL, 30 min): 77.99%; elimination / metabolism of parent drug in TMC hemolymph [4]: extensively metabolized; Protein Binding [5]: 95–98%; LogS [6]: −5.01
7 | NC(=O)N1c2ccccc2C=Cc2ccccc21 [Carbamazepine] | 125 |  | 158 | 114 |  | T ½ [2]: 5 h; Vd [2]: 0.8 to 1.9 L/kg; Stability % Human Microsomes ([3]; human liver microsomes 0.2 mg/mL, 60 min): 77.54%; elimination / metabolism of parent drug in TMC hemolymph [4]: decreased after 4h; Protein Binding [5]: 70–80%
8 | CC(=O)Nc1ccc(O)cc1 [Paracetamol] | 125 |  |  | 340 |  | 
9 | C[S+](C)[O-] [DMSO] |  |  |  |  |  | LD50 (Mice; i.v., mice, reported): 20600 mg/kg; LD50 (guinea pigs): 6500 mg/kg; Survival % ([7]; 1 µL injected per TMC): 100%; tolerability [7]: well tolerated; Survival % ([7]; 2 µL injected per TMC): 0%; lethality ([7]; 2 µL per TMC): 100%; LD50 (dogs): 2500 mg/kg; LD50 (Rats; i.v., rats): 5400 mg/kg
10 | CN/C(=N/CCSCc1nc[nH]c1C)NC#N [Cimetidine] | 750 | 326 | 328 | 306 | 150 | 
11 | CCO [EtOH] |  |  |  |  |  | Survival % ([7]; 1 µL injected per TMC): 100%; tolerability [7]: well tolerated; Survival % ([7]; 2 µL injected per TMC): 50%; LD50 (Rats; rats, route not given): 1400 mg/kg
12 | CC(C)=O [Acetone] |  |  |  |  |  | Survival % ([7]; 1 µL injected per TMC): 100%; tolerability [7]: well tolerated; Survival % ([7]; 2 µL injected per TMC): 16.6%
13 | Nc1nc2c(ncn2COCCO)c(=O)[nH]1 [Acyclovir] | > 2000 |  |  | 1000 |  | LD50 (dose reported by Tucker et al.) (Rats; rats): greater than 650 mg/kg
14 | Nc1ccc(S(=O)(=O)Nc2ncccn2)cc1 [Sulfadiazine] | 300 | 880 | 446 | 750 | 180 | 
15 | COCCc1ccc(OCC(O)CNC(C)C)cc1 (stereo not shown) [Metoprolol] | 500 | 71.9 |  | >200 | 62 | 
16 | O=C(O)c1ccccc1O [Salicylic acid] |  |  |  | 300 |  | 
17 | COc1ccc2c3c1O[C@H]1[C@@H](O)C=C[C@H]4[C@@H](C2)N(C)CC[C@@]341 [Codeine] | 50 | 75 | 100 | 60 |  | 
18 | CC(C)C(=O)OC[C@H]1O[C@@H](n2ccc(NO)nc2=O)[C@H](O)[C@@H]1O [Molnupiravir] | > 2000 |  |  |  |  | toxicity at the highest dose (Tenebrio molitor): absence of toxicity; LD50 [8]: > 800 mg/kg
19 | O=C(N[C@H](CO)[C@H](O)c1ccc([N+](=O)[O-])cc1)C(Cl)Cl [Chloramphenicol] | 300 |  |  |  | 171 | 
